Experimental data reported in the supplement of paper PMC10307832.

Tests used:
Experiment in all cases: relative viability (nuclei count vs DMSO), 5 days (fraction); higher = more cells survive
[1] = compound: O=C(Nc1c[nH]nc1-c1nc2ccc(CN3CCOCC3)cc2[nH]1)NC1CC1 [AT9283]
Method in brief: (§1)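 Lung cancer cell lines received five library-drug doses (not always all listed) spaced by √10, pinned on vehicle-anchored 1536-well plates after an overnight stay at 37 °C. Five days later, with no medium change, nuclei were Hoechst-stained, imaged at 4× and counted with MetaXpress. Viability is treated-well nuclei relative to vehicle-well nuclei, as a median across plates. Passing plates had control CV below 25% and at least one doubling.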

[2] = compound: C#Cc1cccc(Nc2ncnc3cc(OCCOC)c(OCCOC)cc23)c1 [Erlotinib]
Method in brief: as §1

[3] = compound: O=C(Nc1c[nH]nc1-c1nc2ccc(CN3CCOCC3)cc2[nH]1)NC1CC1 [AT9283] + O=C(c1cc(Cc2n[nH]c(=O)c3ccccc23)ccc1F)N1CCN(C(=O)C2CC2)CC1 [Olaparib] (partner 8 µM)
Method in brief: (§2)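 Each reported value is a median over duplicate plates. It expresses relative viability: treated-well nuclei count divided by vehicle-well nuclei count. Lung cancer cell lines in 1536-well plates were dosed by pin tool a day after seeding, alone with one drug or with a fixed anchor-drug dose plus five library-drug doses (not always all listed) in √10 steps, and nuclei were counted after 5 days.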

[4] = compound: N=C(N)NC(=N)NCCc1ccccc1 [Phenformin] (anchor plate); settings: 250 µM
Method in brief: as §1

[5] = compound: C#Cc1cccc(Nc2ncnc3cc(OCCOC)c(OCCOC)cc23)c1 [Erlotinib] + CC(=O)c1c(C)c2cnc(Nc3ccc(N4CCNCC4)cn3)nc2n(C2CCCC2)c1=O [Palbociclib] (partner 0.5 µM)
Method in brief: as §2

Question: What does the source list for EBC-1?
Answer: relative viability ([1]; 0.003 µM): 0.969; relative viability ([1]; 0.03 µM): 0.289; relative viability ([1]; 0.09487 µM): 0.164; relative viability ([1]; 0.3 µM): 0.165; relative viability ([2]; 0.02 µM): 0.977; relative viability ([2]; 0.2 µM): 0.988; relative viability ([2]; 0.6325 µM): 0.978; relative viability ([2]; 2 µM): 0.897; relative viability ([3]; first compound 0.003 µM): 0.669; relative viability ([3]; first compound 0.03 µM): 0.334; relative viability ([3]; first compound 0.09487 µM): 0.18; relative viability ([3]; first compound 0.3 µM): 0.145

Question: Which relative viability [4] does the source give for EKVX here?
Answer: 0.231

Question: And the relative viability ([1]; 0.003 µM)?
Answer: 0.915

Question: What about the relative viability ([1]; 0.03 µM) of the same cell line?
Answer: 0.858

Question: And the relative viability ([1]; 0.09487 µM)?
Answer: 0.629

Question: What about the relative viability ([1]; 0.3 µM) of the same cell line?
Answer: 0.324

Question: And the relative viability ([2]; 0.02 µM)?
Answer: 0.962

Question: What about the relative viability ([2]; 0.2 µM) of the same cell line?
Answer: 0.587

Question: And the relative viability ([2]; 0.6325 µM)?
Answer: 0.43

Question: And the relative viability ([2]; 2 µM)?
Answer: 0.215

Question: What about the relative viability ([5]; first compound 0.02 µM) of the same cell line?
Answer: 0.348

Question: And the relative viability ([5]; first compound 0.2 µM)?
Answer: 0.191

Question: And the relative viability ([5]; first compound 0.6325 µM)?
Answer: 0.205

Question: And the relative viability ([5]; first compound 2 µM)?
Answer: 0.115

Question: And the relative viability ([3]; first compound 0.003 µM)?
Answer: 0.796

Question: And the relative viability ([3]; first compound 0.03 µM)?
Answer: 0.758

Question: And the relative viability ([3]; first compound 0.09487 µM)?
Answer: 0.496

Question: And the relative viability ([3]; first compound 0.3 µM)?
Answer: 0.239

Question: Which relative viability [4] does the source give for EMC-BAC-2 here?
Answer: 0.558

Question: And the relative viability ([1]; 0.003 µM)?
Answer: 0.907

Question: And the relative viability ([1]; 0.03 µM)?
Answer: 0.463

Question: What about the relative viability ([1]; 0.09487 µM) of the same cell line?
Answer: 0.319

Question: And the relative viability ([1]; 0.3 µM)?
Answer: 0.221

Question: And the relative viability ([2]; 0.02 µM)?
Answer: 0.743

Question: And the relative viability ([2]; 0.2 µM)?
Answer: 1.04

Question: What about the relative viability ([2]; 0.6325 µM) of the same cell line?
Answer: 1.1

Question: And the relative viability ([2]; 2 µM)?
Answer: 0.979

Question: And the relative viability ([5]; first compound 0.02 µM)?
Answer: 0.529

Question: And the relative viability ([5]; first compound 0.2 µM)?
Answer: 0.501

Question: What about the relative viability ([5]; first compound 0.6325 µM) of the same cell line?
Answer: 0.553

Question: What about the relative viability ([5]; first compound 2 µM) of the same cell line?
Answer: 0.505

Question: And the relative viability ([3]; first compound 0.003 µM)?
Answer: 0.502

Question: And the relative viability ([3]; first compound 0.03 µM)?
Answer: 0.301

Question: And the relative viability ([3]; first compound 0.09487 µM)?
Answer: 0.261

Question: And the relative viability ([3]; first compound 0.3 µM)?
Answer: 0.203

Question: Which results are given for EPLC-272H?
Answer: relative viability [4]: 0.321; relative viability ([1]; 0.003 µM): 0.886; relative viability ([1]; 0.03 µM): 0.81; relative viability ([1]; 0.09487 µM): 0.203; relative viability ([1]; 0.3 µM): 0.156; relative viability ([2]; 0.02 µM): 1.06; relative viability ([2]; 0.2 µM): 0.882; relative viability ([2]; 0.6325 µM): 1.02; relative viability ([2]; 2 µM): 0.724; relative viability ([5]; first compound 0.02 µM): 0.337; relative viability ([5]; first compound 0.2 µM): 0.307; relative viability ([5]; first compound 0.6325 µM): 0.278; relative viability ([5]; first compound 2 µM): 0.279; relative viability ([3]; first compound 0.003 µM): 0.698; relative viability ([3]; first compound 0.03 µM): 0.18; relative viability ([3]; first compound 0.09487 µM): 0.107; relative viability ([3]; first compound 0.3 µM): 0.119

Question: Which results are given for H3255?
Answer: relative viability [4]: 0.386; relative viability ([1]; 0.003 µM): 0.998; relative viability ([1]; 0.03 µM): 0.95; relative viability ([1]; 0.09487 µM): 0.714; relative viability ([1]; 0.3 µM): 0.177; relative viability ([2]; 0.02 µM): 0.946; relative viability ([2]; 0.2 µM): 0.709; relative viability ([2]; 0.6325 µM): 0.514; relative viability ([2]; 2 µM): 0.225; relative viability ([5]; first compound 0.02 µM): 0.31; relative viability ([5]; first compound 0.2 µM): 0.325; relative viability ([5]; first compound 0.6325 µM): 0.275; relative viability ([5]; first compound 2 µM): 0.251; relative viability ([3]; first compound 0.003 µM): 0.553; relative viability ([3]; first compound 0.03 µM): 0.52; relative viability ([3]; first compound 0.09487 µM): 0.545; relative viability ([3]; first compound 0.3 µM): 0.231

Question: Which relative viability [4] does the source give for HARA here?
Answer: 0.46

Question: What about the relative viability ([1]; 0.003 µM) of the same cell line?
Answer: 0.859

Question: And the relative viability ([1]; 0.03 µM)?
Answer: 0.446

Question: And the relative viability ([1]; 0.09487 µM)?
Answer: 0.166

Question: And the relative viability ([1]; 0.3 µM)?
Answer: 0.171

Question: And the relative viability ([2]; 0.02 µM)?
Answer: 1.04

Question: And the relative viability ([2]; 0.2 µM)?
Answer: 0.707

Question: And the relative viability ([2]; 0.6325 µM)?
Answer: 0.823

Question: What about the relative viability ([2]; 2 µM) of the same cell line?
Answer: 0.466

Question: And the relative viability ([5]; first compound 0.02 µM)?
Answer: 0.233

Question: And the relative viability ([5]; first compound 0.2 µM)?
Answer: 0.224

Question: And the relative viability ([5]; first compound 0.6325 µM)?
Answer: 0.241

Question: What about the relative viability ([5]; first compound 2 µM) of the same cell line?
Answer: 0.188

Question: What about the relative viability ([3]; first compound 0.003 µM) of the same cell line?
Answer: 0.756

Question: What about the relative viability ([3]; first compound 0.03 µM) of the same cell line?
Answer: 0.278

Question: What about the relative viability ([3]; first compound 0.09487 µM) of the same cell line?
Answer: 0.205

Question: What about the relative viability ([3]; first compound 0.3 µM) of the same cell line?
Answer: 0.179

Question: For HCC-15, which relative viability [4] is on record?
Answer: 0.491

Question: And the relative viability ([1]; 0.003 µM)?
Answer: 0.955

Question: What about the relative viability ([1]; 0.03 µM) of the same cell line?
Answer: 0.589

Question: And the relative viability ([1]; 0.09487 µM)?
Answer: 0.325

Question: And the relative viability ([1]; 0.3 µM)?
Answer: 0.17

Question: And the relative viability ([2]; 0.02 µM)?
Answer: 1.05

Question: And the relative viability ([2]; 0.2 µM)?
Answer: 0.97

Question: What about the relative viability ([2]; 0.6325 µM) of the same cell line?
Answer: 1.08

Question: What about the relative viability ([2]; 2 µM) of the same cell line?
Answer: 0.888

Question: And the relative viability ([5]; first compound 0.02 µM)?
Answer: 0.727

Question: And the relative viability ([5]; first compound 0.2 µM)?
Answer: 0.672

Question: What about the relative viability ([5]; first compound 0.6325 µM) of the same cell line?
Answer: 0.751

Question: What about the relative viability ([5]; first compound 2 µM) of the same cell line?
Answer: 0.71

Question: And the relative viability ([3]; first compound 0.003 µM)?
Answer: 0.691

Question: And the relative viability ([3]; first compound 0.03 µM)?
Answer: 0.574

Question: And the relative viability ([3]; first compound 0.09487 µM)?
Answer: 0.192

Question: What about the relative viability ([3]; first compound 0.3 µM) of the same cell line?
Answer: 0.183

Question: What does the source list for HCC-44?
Answer: relative viability [4]: 0.218; relative viability ([1]; 0.003 µM): 0.988; relative viability ([1]; 0.03 µM): 1; relative viability ([1]; 0.09487 µM): 0.614; relative viability ([1]; 0.3 µM): 0.335; relative viability ([2]; 0.02 µM): 0.994; relative viability ([2]; 0.2 µM): 0.961; relative viability ([2]; 0.6325 µM): 1.01; relative viability ([2]; 2 µM): 0.975; relative viability ([5]; first compound 0.02 µM): 0.991; relative viability ([5]; first compound 0.2 µM): 1.03; relative viability ([5]; first compound 0.6325 µM): 0.982; relative viability ([3]; first compound 0.003 µM): 1.01; relative viability ([3]; first compound 0.03 µM): 0.963; relative viability ([3]; first compound 0.09487 µM): 0.724; relative viability ([3]; first compound 0.3 µM): 0.817

Question: For HCC-78, which relative viability [4] is on record?
Answer: 0.681

Question: And the relative viability ([1]; 0.003 µM)?
Answer: 0.847

Question: What about the relative viability ([1]; 0.03 µM) of the same cell line?
Answer: 0.794

Question: What about the relative viability ([1]; 0.09487 µM) of the same cell line?
Answer: 0.332

Question: And the relative viability ([1]; 0.3 µM)?
Answer: 0.262

Question: What about the relative viability ([2]; 0.02 µM) of the same cell line?
Answer: 0.99

Question: And the relative viability ([2]; 0.2 µM)?
Answer: 0.963

Question: And the relative viability ([2]; 0.6325 µM)?
Answer: 1.08

Question: And the relative viability ([2]; 2 µM)?
Answer: 0.745

Question: What about the relative viability ([5]; first compound 0.02 µM) of the same cell line?
Answer: 0.482

Question: And the relative viability ([5]; first compound 0.2 µM)?
Answer: 0.432

Question: What about the relative viability ([5]; first compound 0.6325 µM) of the same cell line?
Answer: 0.458

Question: And the relative viability ([5]; first compound 2 µM)?
Answer: 0.459

Question: What about the relative viability ([3]; first compound 0.003 µM) of the same cell line?
Answer: 0.909

Question: And the relative viability ([3]; first compound 0.03 µM)?
Answer: 0.599

Question: What about the relative viability ([3]; first compound 0.09487 µM) of the same cell line?
Answer: 0.273

Question: What about the relative viability ([3]; first compound 0.3 µM) of the same cell line?
Answer: 0.249
